Data taken from publication PMC7767178 (International Journal of Molecular Sciences, 2020).
Values after ≈ are worked out from the molar mass of the structure shown. Read-outs that look alike come from different tables or passages of the source. Positions of bridges follow the written chain, without caps; N, C: chain ends. Residues, ends and D or L forms follow the SMILES beside them.

Assays:
A. veronii ACCC61732 [1] = assay: Mouse peritonitis model, bacterial translocation to organs; type: in vivo, ICR mice; details: 24 h post-treatment, colony counting
Experimental: Sera and organs (livers, kidneys, spleens, and lungs) were collected from the mice at 24 h post-treatment. The organs were homogenized in sterile PBS to evaluate bacterial translocation by colony counting. The levels of cytokines (TNF-α, IL-1β, IL-6, and IL-10) in sera were detected using the ELISA kits.

[2] = system: A. veronii ACCC61732 biofilm; type: cell-based; details: 16× MIC, 24 h, crystal violet
Experimental: Mid-log phase A. veronii ACCC61732 cells (1 × 10^8 CFU/mL, 180 µL) were added into the 96-well plates. […] Effects of peptides on biofilms formation was evaluated by the crystal violet staining as previously described. The untreated bacteria were used as the negative control (A) and fresh TSB medium was used as the blank control (A0). The inhibition effect of peptides on early biofilms was determined by the following equation: Biofilms (%) = [(Apeptides − A0)/(A − A0)] × 100.

A. veronii ACCC61732 [3] = details: 3 h, MIC against A. veronii ACCC61732; for MIC after physiological salt 50 mM: NaCl 50 mM; for MIC after physiological salt 100 mM: NaCl 100 mM
Experimental: Similarly, salt stability of peptides was determined after a 3 h-incubation in different NaCl solutions (50, 100, 200, 300, 400, and 500 mM). […] The activity of peptides against A. veronii ACCC61732 was determined as described above. The untreated peptides were used as the positive control and buffers alone were used as the negative control. All assays were conducted in triplicate.

A. veronii ACCC61732 [4] = type: physicochemical; details: MIC against A. veronii ACCC61732; for MIC after treatment at 4 °C: 1 h at 4 °C; for MIC after treatment at 20 °C: 1 h at 20 °C; for MIC after treatment at 40 °C: 1 h at 40 °C; for MIC after treatment at 60 °C: 1 h at 60 °C; for MIC after treatment at 80 °C: 1 h at 80 °C
Experimental: The thermal stability of peptides was determined after treatment for 1 h at different temperatures (4, 20, 40, 60, 80, and 100 °C). The relative antibacterial activity of peptides against A. veronii ACCC61732 was determined by the MIC assay.

S. hyicus 437-2 = type: cell-based
RAW 264.7 cells = assay: Cytotoxicity, MTT; type: cell-based; details: 24 h
Experimental: To determine the cytotoxicity of peptides, RAW 264.7 cells (2.5 × 10^4 cells/well) were seeded into 96-well plates and incubated for 24 h. […] The cells were dyed with 3-(4,5-dimethyl-2-thiazolyl)-2,5-diphenyl-2-H-tetrazolium bromide (MTT) (5 mg/mL) for 4 h, incubated with dimethyl sulfoxide (DMSO), and measured at 570 nm. PBS was used as controls. The cell survival rate was calculated by the equation: Survival rate (%) = (Abspeptide/AbsPBS) × 100 [25].

A. veronii ACCC61732 [5] = assay: pH stability, MIC read-out; type: physicochemical; details: MIC against A. veronii ACCC61732; for MIC after treatment at pH 10: glycine-NaOH buffer pH 10.0, 3 h; for MIC after treatment at pH 6: sodium phosphate buffer pH 6.0, 3 h; for MIC after treatment at pH 8: tris-HCl buffer pH 8.0, 3 h
Experimental: To evaluate pH stability, peptides were dissolved in glycine-HCl buffer (pH 2.0), sodium acetate buffer (pH 4.0), sodium phosphate buffer (pH 6.0), tris-HCl buffer (pH 8.0), or glycine-NaOH buffer (pH 10.0) and treated for 3 h. The MIC values of peptides against A. veronii ACCC61732 were measured as described above.

A. veronii ACCC61732 [6] = assay: SEM morphology; type: cell-based; details: 4× MIC, 2 h
Experimental: MDR A. veronii ACCC61732 cells were cultured in MHB at 37 °C (250 rpm) until the mid-log phase of growth, harvested by centrifugation, and diluted with 0.01 M PBS (pH 7.4) to 0.5–5 × 10^8 CFU/mL. […] For SEM, the samples were harvested (5000× g, 5 min) and fixed with 2.5% glutaraldehyde at 4 °C overnight. The cells were dehydrated for 10 min in a graded ethanol series (50%, 70%, 90%, and 100%) and transferred to a mixture of 100% ethanol, tertiary butanol, and absolute tertiary butanol (v:v = 1:1) for 15 min. Finally, the specimens were dehydrated in a critical point dryer with liquid CO2, coated with gold–palladium, and observed using a QUANTA200 (FEI, Philips, Amsterdam, Netherlands).

mouse erythrocytes = assay: Hemolysis; type: cell-based; details: 256 μg/mL; 8% mouse erythrocyte suspension, 37 °C, 1 h, absorbance 540 nm
Experimental: To determine the hemolysis of peptides, eyeball blood was collected from 6-week-old SPF ICR mice. The blood was centrifuged at 4 °C for 10 min (1500 rpm), washed three times with 0.9% physiological saline, and diluted to 8% suspension. […] Red blood cell suspensions and peptide solutions (100 μL) were mixed in 96-well plates, centrifuged at 4 °C for 5 min (1500 rpm), and incubated at 37 °C for 1 h. The supernatant was added into a 96-well plate and the UV absorbance was measured at 540 nm using a microplate reader. Physiological saline and 0.1% Triton X-100 were used as 0% and 100% hemolytic controls, respectively. The hemolytic ratio was calculated as follows: Hemolysis (%) = [(Abspeptide − Abssaline)/(Abs0.1%Triton X-100 − Abssaline)] × 100% [38].

pepsin = details: pH 2
[7] = 37 °C
[8] = system: Pseudomonas aeruginosa and Gram-positive bacteria such as Staphylococcus aureus and S. hyicus; assay: MIC, range over strains; type: cell-based; details: range over the strains of Table 2
Text: All experiments were repeated three times.

proteinase K = proteinase K (Parengyodontium album, UniProt P06873); details: proteinase K 40 mAU/mg, pH 7.0, peptide:enzyme 10:1 (w/w); MIC against A. veronii ACCC61732; triplicate
proteinase K, sequence (P06873 106-384): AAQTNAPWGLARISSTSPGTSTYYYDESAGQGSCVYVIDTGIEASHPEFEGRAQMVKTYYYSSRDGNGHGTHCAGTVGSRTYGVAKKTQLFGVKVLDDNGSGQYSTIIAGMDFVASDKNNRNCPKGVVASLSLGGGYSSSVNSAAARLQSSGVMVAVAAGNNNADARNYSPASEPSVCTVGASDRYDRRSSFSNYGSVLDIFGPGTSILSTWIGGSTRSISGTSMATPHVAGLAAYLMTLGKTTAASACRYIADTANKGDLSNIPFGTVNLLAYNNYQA

[9] = S. hyicus 437-2 (clinical isolate, pig farm), broth dilution, 37 °C, 16–18 h, three experiments

Compound | reduction of bacteria in kidneys (A. veronii ACCC61732 [1]; 5 μmol/kg) [%] | reduction of bacteria in livers (A. veronii ACCC61732 [1]; 5 μmol/kg) [%] | reduction of bacteria in lungs (A. veronii ACCC61732 [1]; 5 μmol/kg) [%] | reduction of bacteria in spleens (A. veronii ACCC61732 [1]; 5 μmol/kg) [%] | MIC after physiological salt 50 mM (A. veronii ACCC61732 [3]) [μg/mL] | MIC after physiological salt 100 mM (A. veronii ACCC61732 [3]) [μg/mL] | MIC after treatment at 4 °C (A. veronii ACCC61732 [4]) [µg/mL] | MIC after treatment at 20 °C (A. veronii ACCC61732 [4]) [µg/mL] | MIC after treatment at 40 °C (A. veronii ACCC61732 [4]) [µg/mL] | MIC after treatment at 60 °C (A. veronii ACCC61732 [4]) [µg/mL] | MIC after treatment at 80 °C (A. veronii ACCC61732 [4]) [µg/mL] | MIC (S. hyicus 437-2) [µM] | MIC (S. hyicus 437-2; [9]) [µg/mL] | MIC after treatment at pH 10 (A. veronii ACCC61732 [5]) [μg/mL] | MIC after treatment at pH 6 (A. veronii ACCC61732 [5]) [μg/mL] | MIC after treatment at pH 8 (A. veronii ACCC61732 [5]) [μg/mL] | hemolysis (mouse erythrocytes) [%] | other results
O=C(O)c1cn(C2CC2)c2cc(N3CCNCC3)c(F)cc2c1=O [CIP, ciprofloxacin, reference compound] |  |  |  |  |  |  |  |  |  |  |  |  |  |  |  |  |  | reduction of bacteria in kidneys (A. veronii ACCC61732 [1]; 1 μmol/kg): 60.14%; reduction of bacteria in livers (A. veronii ACCC61732 [1]; 1 μmol/kg): 54.55%; reduction of bacteria in lung (A. veronii ACCC61732 [1]; 1 μmol/kg): 62.27%; reduction of bacteria in spleens (A. veronii ACCC61732 [1]; 1 μmol/kg): 53.62%; inhibition of early biofilm [2]: 70.75%
CC(C)[C@H]1NC(=O)CNC(=O)[C@@H](CC(N)=O)NC(=O)[C@@H](CCCNC(=N)N)NC(=O)[C@@H](Cc2ccc(O)cc2)NC(=O)[C@@H](C(C)C)NC(=O)[C@H](NC(=O)[C@H](NC(=O)[C@@H](CC(N)=O)NC(=O)[C@@H](Cc2c[nH]c3ccccc23)NC(=O)[C@@H](C)NC(=O)[C@@H](Cc2ccccc2)NC(=O)CN)C(C)C)CSSC[C@H](C(=O)N[C@H](Cc2c[nH]cn2)C(=O)N[C@H](CCCNC(=N)N)C(=O)N[C@H](CCCNC(=N)N)C(=O)N[C@H](C)C(=O)N[C@H](CC(N)=O)C(N)=O)NC(=O)[C@@H](C(C)C)NC(=O)[C@@H](CCCNC(=N)N)NC1=O [DN6NH2] | 80.10 | 89.65 | 81.61 | 70.38 | 4 | 4 | 4 (≈ 1.62 µM) | 4 (≈ 1.62 µM) | 4 (≈ 1.62 µM) | 4 (≈ 1.62 µM) | 4 (≈ 1.62 µM) | 3.23 | 8 | 4 | 4 | 4 | 1.46 | MIC after physiological salt 200 mM (A. veronii ACCC61732 [3]; NaCl 200 mM): 4 μg/mL; MIC after physiological salt 300 mM (A. veronii ACCC61732 [3]; NaCl 300 mM): 4 μg/mL; MIC after physiological salt 400 mM (A. veronii ACCC61732 [3]; NaCl 400 mM): 4 μg/mL; MIC after physiological salt 500 mM (A. veronii ACCC61732 [3]; NaCl 500 mM): 4 μg/mL; cell survival rate at low concentrations (RAW 264.7 cells): over 100%; cells producing filamentous substances (A. veronii ACCC61732 [6]): over 50%; MIC after pepsin treatment (pepsin): retained the antibacterial activity; activity retained in SIF ([7]; 200 μg/mL peptide, inhibition zone against A. veronii ACCC61732): 100%; state after incubation in SIF ([7]; 1 h): remained intact; MICs against Pseudomonas aeruginosa and Gram-positive bacteria such as S. aureus and S. hyicus [8]: 1.62 to 6.46 µM
CC(C)[C@@H]1NC(=O)CNC(=O)[C@H](CC(N)=O)NC(=O)[C@H](CCCNC(=N)N)NC(=O)[C@H](Cc2ccc(O)cc2)NC(=O)[C@H](C(C)C)NC(=O)[C@@H](NC(=O)[C@@H](NC(=O)[C@H](CC(N)=O)NC(=O)[C@H](Cc2c[nH]c3ccccc23)NC(=O)[C@H](C)NC(=O)[C@H](Cc2ccccc2)NC(=O)CN)C(C)C)CSSC[C@@H](C(=O)N[C@@H](Cc2cnc[nH]2)C(=O)N[C@@H](CCCNC(=N)N)C(=O)N[C@@H](CCCNC(=N)N)C(=O)N[C@@H](C)C(=O)N[C@@H](CC(N)=O)C(N)=O)NC(=O)[C@H](C(C)C)NC(=O)[C@H](CCCNC(=N)N)NC1=O [N6NH2] | 80.52 | 72.94 | 71.89 | 77.86 | 4 | 4 | 4 (≈ 1.62 µM) | 4 (≈ 1.62 µM) | 4 (≈ 1.62 µM) | 4 (≈ 1.62 µM) | 4 (≈ 1.62 µM) | 12.9 | 32 | 4 | 4 | 4 |  | MIC after proteinase K treatment (proteinase K): > 128 µg/mL; MIC after treatment at pH 2 (A. veronii ACCC61732 [5]; glycine-HCl buffer pH 2.0, 3 h): 4 μg/mL; MIC after treatment at pH 4 (A. veronii ACCC61732 [5]; sodium acetate buffer pH 4.0, 3 h): 4 μg/mL
CC(C)[C@@H]1NC(=O)CNC(=O)[C@H](CC(N)=O)NC(=O)[C@H](CCCNC(=N)N)NC(=O)[C@H](Cc2ccc(O)cc2)NC(=O)[C@H](C(C)C)NC(=O)[C@@H](NC(=O)[C@@H](NC(=O)[C@H](CC(N)=O)NC(=O)[C@H](Cc2c[nH]c3ccccc23)NC(=O)[C@H](C)NC(=O)[C@H](Cc2ccccc2)NC(=O)CN)C(C)C)CSSC[C@@H](C(=O)N[C@@H](Cc2c[nH]cn2)C(=O)N[C@@H](CCCNC(=N)N)C(=O)N2CCC[C@H]2C(=O)N[C@@H](C)C(=O)N[C@@H](CC(N)=O)C(N)=O)NC(=O)[C@H](C(C)C)NC(=O)[C@H](CCCNC(=N)N)NC1=O [N6PNH2] (H-GFAWNVCVYRNGVRVCHRPAN-NH2; disulfide 7-16 (inferred)) | 18.36 | 31.54 | 15.92 | 28.47 |  |  |  |  |  |  |  |  | >64 |  |  |  | 0.56 | 
CC(C)[C@H](N)C(=O)N[C@@H](Cc1ccccc1)C(=O)N[C@@H](C)C(=O)N[C@@H](Cc1c[nH]c2ccccc12)C(=O)N[C@@H](CC(N)=O)C(=O)N[C@H](C(=O)N[C@H]1CSSC[C@@H](C(=O)N[C@@H](Cc2c[nH]cn2)C(=O)N[C@@H](CCCNC(=N)N)C(=O)N[C@@H](CCCNC(=N)N)C(=O)N[C@@H](C)C(=O)N[C@@H](CC(N)=O)C(N)=O)NC(=O)[C@H](C(C)C)NC(=O)[C@H](CCCNC(=N)N)NC(=O)[C@H](C(C)C)NC(=O)[C@H](C(C)C)NC(=O)[C@H](CC(N)=O)NC(=O)[C@H](CCCNC(=N)N)NC(=O)[C@H](Cc2ccc(O)cc2)NC(=O)[C@H](C(C)C)NC1=O)C(C)C [V112N6NH2] (H-VFAWNVCVYRNVVRVCHRRAN-NH2; disulfide 7-16 (inferred)) | 63.42 | 52.71 | 83.57 | 63.87 |  |  |  |  |  |  |  | 12.5 | 32 |  |  |  | 4.59 | 
